Values of other authors in article PMC8136953 (Veterinary Medicine and Science, 2020).

Set-up: method as in Park et al., 2006
Conditions: ref Park et al., 2006; cited from earlier work

CS(=O)(=O)c1ccc([C@@H](O)[C@H](N)CF)cc1 [FLO amine, florfenicol amine]
Antibacterial activity: virtually lacks antibacterial activity
